Laboratory results from patent US9387221B2, “SDF-1 binding nucleic acids and the use thereof in cancer treatment” (NOXXON Pharma AG, priority 2010, dated 2016).
Entries after “also recorded” stand apart in the source; their conditions may differ. [L-RNA-N] = L-ribonucleotide (mirror-image RNA, Spiegelmer), made from L-configured RNA phosphoramidites (N: the base); {PEG40k} = 40 kDa poly(ethylene glycol)

Legend:
[1] = system: biotinylated human D-SDF-1; test: Competitive pull-down binding assay; conditions: for binding affinity in competitive pull-down binding assay vs. 192-A10-001: aptamer level, reference 192-A10-001
Procedure: In order to compare different D-SDF-1 binding aptamers, a competitive ranking assay was performed. For this purpose the most affine aptamer available was radioactively labeled (see above) and served as reference. […] An excess of de- and renatured non-labeled D-RNA aptamer variants was added to different concentrations (e.g. 2, 10, and 50 nM) with the labeled reference aptamer to parallel binding reactions. The aptamers to be tested competed with the reference aptamer for target binding, thus decreasing the binding signal in dependence of their binding characteristics.

[2] = biological target: SDF-1 (Homo sapiens, UniProt P48061); test: Inhibition of SDF-1-induced chemotaxis, Jurkat cells; assay type: cell-based; conditions: for influence of the PEG-moiety on Spiegelmers potency to inhibit SDF-1 induced chemotaxis: Spiegelmer coupled to 40 kDa PEG at the 5′-end; for IC50: Spiegelmer, Jurkat cells migrating towards 0.3 nM human SDF-1, 3 h, 37° C., read-out: IC50, cell culture in vitro chemotaxis assay
Chain of SDF-1 (P48061 22-89): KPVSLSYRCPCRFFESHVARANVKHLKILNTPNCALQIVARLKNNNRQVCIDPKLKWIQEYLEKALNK
Procedure: The human T cell leukemia cell line Jurkat, the human leukemic monocyte lymphoma cell line U937, the human pre-B cell leukemia cell line BV-173 and human pre-B ALL cell line Nalm-6 express CXCR4. […] All cells used were obtained from the DSMZ (Braunschweig). All cell lines were cultivated at 37° C. and 5% CO2 in RPMI 1640 medium with Glutamax (Invitrogen, Karlsruhe, Germany) which contains 10% fetal bovine serum, 100 units/ml penicillin and 100 μg/ml streptomycin (Invitrogen, Karlsruhe, Germany). One day before the experiment, cells were seeded in a new T175 flask with a density of 0.3×10^6/ml (Jurkat, U937, BV-173) or 0.75×10^6/ml (Nalm-6), respectively.
For the experiment, cells were centrifuged (5 min at 300 g), resuspended, counted and washed once with 15 ml HBH (Hanks balanced salt solution containing 1 mg/ml bovine serum albumin and 20 mM HEPES; Invitrogen, Karlsruhe, Germany). Then the cells were resuspended at 1.33×10^6/ml (Jurkat, U937, BV-173) or 2.67×10^6/ml (Nalm-6), respectively. Cells were then allowed to migrate through the porous membranes of the filter plates for three hours towards a solution containing SDF-1 and various amounts of Spiegelmer. The stimulation solutions (SDF-1+various concentrations of Spiegelmer) were made up as 10× solutions in a 0.2 ml low profile 96-tube plate. 212 μl HBH were pipetted into the lower compartments of the transport plate and 23.5 μl of the stimulation solutions were added. All conditions were made up as triplicates. After 20 to 30 min the filter plate was inserted into the plate containing the stimulation solutions and 75 μl of a cell suspension with 1.33×10^6/ml or 2.67×10^6/ml, respectively, were added to the wells of the filter plate (1×10^5 or 2×10^5 cells/well). The cells were then allowed to migrate for 3 h at 37° C. For calibration, 0, 10 and 30 μl of the cell suspension was added to 235, 225 and 205 μl HBH, respectively, in wells of a separate 96-well plate. After 3 hours incubation, the insert plate was removed and 30 μl resazurin working solution (440 μM in PBS) were added to the lower wells and to the wells of the calibration plate. The plates were then incubated at 37° C. for 2.5 h. After incubation, 100 μl of each well were transferred to a black 96 well plate.
For evaluation, fluorescence values were corrected for background fluorescence (no cells in well). Then the difference between experimental conditions with and without SDF-1 was calculated. The value for the sample without Spiegelmer (SDF-1 only) was set 100% and the values for the samples with Spiegelmer were calculated as percent of this. For a dose-response curve the percent-values were plotted against Spiegelmer concentration and the IC50-value (concentration of Spiegelmer at which 50% of the activity without Spiegelmer is present) was determined graphically from the resulting curve.

[3] = system: biotinylated human D-SDF-1; test: Direct pull-down binding assay; conditions: aptamer (D-RNA), 37° C.; read-out: equilibrium binding constant KD, pull-down binding assay
Procedure: The affinity of aptamers to biotinlayted human D-SDF-1 was measured in a pull-down binding assay format at 37° C. Aptamers were 5′-phosphate labeled by T4 polynucleotide kinase (Invitrogen, Karlsruhe, Germany) using [γ-^32P]-labeled ATP (Hartmann Analytic, Braunschweig, Germany). The specific radioactivity of labeled aptamers was 200,000-800,000 cpm/pmol. Aptamers were incubated after de- and renaturation at 10, 20, 30 or 40 pM concentration at 37° C. in selection buffer (20 mM Tris-HCl pH 7.4; 137 mM NaCl; 5 mM KCl; 1 mM MgCl2; 1 mM CaCl2; 0.1% [w/vol] Tween-20) together with varying amounts of biotinlayted human D-SDF-1 for 4-12 hours in order to reach equilibrium at low concentrations. Selection buffer was supplemented with 10 μg/ml human serum albumin (Sigma-Aldrich, Steinheim, Germany), and 10 μg/ml yeast RNA (Ambion, Austin, USA) in order to prevent adsorption of binding partners with surfaces of used plasticware or the immobilization matrix. The concentration range of biotinlayted human D-SDF-1 was set from 8 pM to 100 nM; total reaction volume was 1 ml. Peptide and peptide-aptamer complexes were immobilized on 1.5 μl Streptavidin Ultralink Plus particles (Pierce Biotechnology, Rockford, USA) which had been preequilibrated with selection buffer and resuspended in a total volume of 6 μl. Particles were kept in suspension for 30 min at the respective temperature in a thermomixer. Immobilized radioactivity was quantitated in a scintillation counter after detaching the supernatant and appropriate washing. The percentage of binding was plotted against the concentration of biotinlayted human D-SDF-1 and dissociation constants were obtained by using software algorithms (GRAFIT; Erithacus Software; Surrey U.K.) assuming a 1:1 stoichiometry.

[4] = biological target: human SDF-1α (Homo sapiens, UniProt P48061); test: Surface plasmon resonance measurement (Biacore 2000); assay type: binding; conditions: Spiegelmer (L-RNA), 37° C.
Chain of human SDF-1α (P48061 22-89): as above
Procedure: The Biacore 2000 instrument (Biacore AB, Uppsala, Sweden) was used to analyze binding of Spiegelmers to human SDF-1α. When coupling of human SDF-1α was to be achieved via amine groups, human SDF-1α was dialyzed against water for 1-2 h (Millipore VSWP mixed cellulose esters; pore size, […]) to remove interfering amines. CM4 sensor chips (Biacore AB, Uppsala, Sweden) were activated before protein coupling by a 35-μl injection of a 1:1 dilution of 0.4 M NHS and 0.1 M EDC at a flow of 5 μl/min. Human MCP-1 or human SDF-1α was then injected in concentrations of 0.1-1.5 μg/ml at a flow of 2 μl/min until the instrument's response was in the range of 1000-2000 RU (relative units). Unreacted NHS esters were deactivated by injection of 35 μl ethanolamine hydrochloride solution (pH 8.5) at a flow of 5 μl/min. The sensor chip was primed twice with binding buffer and equilibrated at 10 μl/min for 1-2 hours until the baseline appeared stable. For all proteins, kinetic parameters and dissociation constants were evaluated by a series of Spiegelmer injections at concentrations of 1000, 500, 250, 125, 62.5, 31.25, and 0 nM in selection buffer (Tris-HCl, 20 mM; NaCl, 137 mM; KCl, 5 mM; CaCl2, 1 mM; MgCl2, 1 mM; Tween20, 0.1% [w/v]; pH 7.4). In all experiments, the analysis was performed at 37° C. using the Kinject command defining an association time of 180 and a dissociation time of 360 seconds at a flow of 10 μl/min. Data analysis and calculation of dissociation constants (KD) was done with the BIAevaluation 3.0 software (BIACORE AB, Uppsala, Sweden) using the Langmuir 1:1 stochiometric fitting algorithm.

[5] = system: SDF-1 induced sprouting, rings from rat aorta; test: Aortic ring sprouting assay; assay type: cell-based; conditions: 10 nM SDF-1 + 1 μM Spiegelmer, 6 days
Procedure: After 6 to 7 days, sprouting (i.e. outgrowth of endothelial cells) was analysed by taking pictures and determining a sprouting index.
Aortae from male rats were obtained from Bagheri Life sciences (Berlin, Germany). The aortae were prepared freshly and transported on ice in MCDB 131-Medium (Invitrogen, Karlsruhe, Germany) containing 50 units/ml penicillin, 50 μg/ml streptomycin (both Invitrogen, Karlsruhe, Germany) and 2.5 μg/ml fungizone (Cambrex, USA).
For an experiment a single aorta was transferred to a cell culture dish together with the medium and residual connective tissue was removed. Then the aorta was cut with a scalpel into rings of about 1 to 2 mm length. The rings were washed intensively (at least five times) in Medium199 (Invitrogen, Karlsruhe, Germany) and then placed in wells of a 24 well plate, containing 450 μl of collagen solution per well. […]
Sprouting was documented by taking pictures with a digital camera. […] Pictures were analysed with the Scion Image image processing software. […] A plot histogram along this line was generated by the software, histograms were printed and peaks (representing sprouts crossing the line) were counted. […] 4 to 5 rings per condition were evaluated. […]

GCGUGAAAGCAACAUGUCAAUGAAAGGUAGCCGCGC (chemistry not fully specified) [192-A10-008]
binding affinity of derivatives of 192-A10-001 in competitive pull-down binding assay ([1]; vs. 192-A10-001 and 192-A10-008): same binding affinity as shown for 192-A10-002
influence of the PEG-moiety on Spiegelmers potency to inhibit SDF-1 induced chemotaxis [2]: no influence

CGGGAGGUUAGGGCUAGAAGUCGGUCCCG (chemistry not fully specified) [191-D5-007]
Kd [3]: 2200 pM
Kd [4]: 800 pM
binding affinity in competitive pull-down binding assay vs. 191-D5-001 ([1]; reference 191-D5-001): somewhat better
influence of the PEG-moiety on Spiegelmers potency to inhibit SDF-1 induced chemotaxis [2]: no influence
IC50 [2]: 100 pM

GCCGGGGUUAGGGCUAGAAGUCGGCCGGC (chemistry not fully specified) [197-B2-006]
binding affinity of truncated derivatives of 197-B2 ([1]; vs. 197-B2 and 191-D5-007): fully persisted
influence of the PEG-moiety on Spiegelmers potency to inhibit SDF-1 induced chemotaxis [2]: no influence

GCUGUGAAAGCAACAUGUCAAUGAAAGGUAGCCGCAGC (aptamer; Made as D-RNA aptamer and L-RNA Spiegelmer, tested form not given here, further chemistry not given here) [192-A10-001]
Kd [3]: 1500 pM
IC50 [2]: 120 pM

GUGCUGCGGGGGUUAGGGCUAGAAGUCGGCCUGCAGCAC (aptamer; chemistry not fully specified) [197-B2]
Kd [4]: 900 pM
binding affinity in competitive pull-down binding assay vs. 192-A10-001 [1]: weaker binding affinities
binding affinity in competitive pull-down binding assay vs. 191-D5-007 ([1]; reference 191-D5-007): same binding affinity to SDF-1 as 191-D5-007

GAGAUAGGGGUUAGGGCUUAAAGUCGGCUGAUUCUC (aptamer; Made as D-RNA aptamer and L-RNA Spiegelmer, tested form not given here, further chemistry not given here) [190-A3-004]
Kd [3]: 4600 pM
Kd [4]: 4700 pM
binding affinity of derivatives of 190-A3-001 ([1]; compared with 190-A3-001): does not have an influence on the binding affinity
IC50 [2]: 100 pM

AGCGUGGCGAGGUUAGGGCUAGAAGUCGGUCGACACGCU (Made as D-RNA aptamer and L-RNA Spiegelmer, tested form not given here, further chemistry not given here) [191-D5-001]
Kd [4]: 800 pM
binding affinity in competitive pull-down binding assay vs. 192-A10-001 [1]: weaker binding affinities

AGCGUGGUGUGAUCUAGAUGUAUUGGCUGAUCCUAGUCAGGUACGCU (chemistry not fully specified) [193-G2-001]
Kd [3]: 300 pM
binding affinity in competitive pull-down binding assay vs. 192-A10-001 [1]: superior binding
IC50 [2]: 80 pM

5′-40 kDa-PEG-UAAGGAAACUCGGUCUGAUGCGGUAGCGCUGUGCAGAGCU (all [L-RNA-N], 5' {PEG40k}, backbone not given here) [Control Spiegelmer, reference compound]
blockage of SDF-1 induced sprouting (sprouting index) [5]: No blockage
inhibition of SDF-1 induced chemotaxis ([2]; Jurkat cells, Control Spiegelmer up to 1 μM): no inhibitory effect

GCGUGGUGUGAUCUAGAUGUAUUGGCUGAUCCUAGUCAGGUACGC (chemistry not fully specified) [193-G2-012]
Kd [3]: 300 pM

GCGUGGUGUGAUCUAGAUGUAGUGGCUGAUCCUAGUCAGGUGCGC (chemistry not fully specified) [193-D2-002]
binding to human SDF-1 in comparison to 193-G2-001 ([1]; reference 193-G2-001): reduced binding; also recorded: weaker binding affinities
